Assay results from article PMC9246773, “Assessing the Activity of Antimicrobial Peptides Against Common Marine Bacteria Located in Rotifer (Brachionus plicatilis) Cultures” (Probiotics and Antimicrobial Proteins, 2022).
Where two headings read alike, the source gives them in different places. No end group written: not given here.

What was measured:
Type in all cases: cell-based
Vibrio scophthalmi [1] = tested on: Vibrio scophthalmi
Protocol: (§1) A range of bacterial species with the potential to be transferred to developing fish larvae as pathogens or probiotics were selected for use in the study (Table 2). Bacterial isolates were stored at −80 °C and thawed, and 25 µL of the isolates was spread onto marine salt agar (MSA) media. All isolates were incubated at 25 °C for 18 h to reach mid-log growth phase. All isolates were sub-cultured and identified using mass spectrometry (MALDI-TOF) using the BioTyper and MBT 8468 library (Bruker Pty Ltd). The isolate Tenacibaculum discolor was plated on Anacker and Oradal’s marine (AOM) media, incubated for 48 h and identified using the aforementioned method. Bacterial isolates were suspended in sterile saline (0.75% NaCl w/v) to 0.5 McFarland standard. […] The bacterial isolates T. discolor and Pseudoalteromonas sp. require marine salts to grow and were not added to MHB (0‰). The isolate T. discolor requires low nutrients to grow, therefore, a separate MHB (25‰) was prepared at a diluted ratio of 1 part MHB and 7 parts artificial seawater (25‰).
(§2) The protocol was followed to determine the minimum inhibitory concentration (MIC) of the selected peptides. Two MIC assays were performed, firstly to determine whether each peptide precipitated in MHB and thereby required acetic acid adjustments (supplementary materials) and secondly, to determine the antimicrobial activity of each peptide in artificial seawater (25‰). Peptide stock solutions (1.3 mg mL^−1) were made by diluting the peptides in sterile deionised water. MHB was made with deionised water to reach a concentration of approaching 0‰ and artificial sea salts (Sigma-Aldrich® S9883) to reach a salinity of 25‰.
(§3) A broth microdilution protocol was followed to test whether the AMPs precipitated in MHB. The isolates T. discolor and Pseudoalteromonas were excluded from this assay because they required marine salts for growth. The peptides HHC10 and HHC36 previously required acetic acid adjustments according to [63] and were not trialled in this assay. To test if peptides required acetic acid, each peptide was diluted 1:2 in acetic acid (0.02% acetic acid w/v, containing 0.4% BSA) solution. In a 96-well polypropylene microtitre plates (Costar® 3879), 100 µL of this peptide stock was added to the first well for each bacterial isolate tested and serially diluted 2-fold with acetic acid (0.01% acetic acid w/v, containing 0.2% BSA). From each well, 10 µL of each peptide concentration was added to the corresponding wells of a new 96-well microtitre plate. From each of the bacterial suspensions in MHB (0‰), 90 µL was added to each well. […] From each of the bacterial suspensions in MHB (0‰), 50 µL was added to each well. All peptide concentrations ranged from 0.125 - 65µg mL^-1 and the bacterial suspension in each well was approximately 5 × 10^5 CFU mL^-1. Antimicrobial peptides that have an MIC value two or more dilutions higher in the assay with no acetic acid, compared to the assay with acetic acid, require acetic acid adjustments. The 96-well plates were incubated at 25 °C and read at 24 and 48 hours. The MIC was visually determined using a Sensititre™ Vizion™ Digital MIC Viewing System (Thermo Scientific™), and the lowest AMP concentration that had no bacterial growth was recorded as the MIC after 48 hours. Each bacterium was trialled in duplicate.

Vibrio harveyi [2] = tested on: Vibrio harveyi
Protocol: as §1, §2, §3

[3] = tested on: Vibrio harveyi (ATCC 35084)
Protocol: as §1, §2, §3

Vibrio rotiferianus [4] = tested on: Vibrio rotiferianus
Protocol: as §1, §2, §3

Vibrio alginolyticus [5] = tested on: Vibrio alginolyticus
Protocol: as §1, §2, §3

[6] = tested on: Escherichia coli (ATCC 25922)
Protocol: as §1, §2, §3

Shewanella sp. [7] = tested on: Shewanella sp.
Protocol: as §1, §2, §3

Vibrio scophthalmi [8] = tested on: Vibrio scophthalmi; remark: listed apart in the source
Protocol: as §1, §2
(§4) Once the acetic acid requirement for each peptide was determined (Table 3), the antimicrobial activity of each peptide was tested at a salinity of 0‰ and 25‰ for all bacterial isolates. A stock solution for peptides that required acetic acid was prepared by a 1:2 dilution in acetic acid (0.02% acetic acid w/v, containing 0.4% BSA) solution. In a 96-well polypropylene microtitre plates (Costar® 3879), 100 µL of this peptide stock was added to the first well for each bacterial isolate tested and serially diluted twofold with acetic acid (0.01% acetic acid w/v, containing 0.2% BSA). From each well, 10 µL of each peptide concentration was added to the corresponding wells of a new 96-well microtitre plate. From each of the bacterial suspensions (0‰), 90 µL was added to each well. […] Twofold serial dilutions were made with MHB (0‰). From each of the bacterial suspensions (0‰), 50 µL was added to each well. The same method was followed for testing peptides in MHB at 25‰. All peptide concentrations ranged from 0.125 to 65 µg mL^−1, and the bacterial suspension in each well was approximately 5 × 10^5 CFU mL^−1. The different salinities were used to compare any differences in antimicrobial activity in 0‰ and 25‰ water. […] Each bacterium was trialled in duplicate.

Vibrio harveyi [9] = tested on: Vibrio harveyi; remark: listed apart in the source
Protocol: as §1, §2, §4

Pseudoalteromonas sp. = tested on: Pseudoalteromonas sp.
Protocol: as §1, §2, §4

[10] = tested on: Vibrio harveyi (ATCC 35084); remark: listed apart in the source
Protocol: as §1, §2, §4

Vibrio rotiferianus [11] = tested on: Vibrio rotiferianus; remark: listed apart in the source
Protocol: as §1, §2, §4

Tenacibaculum discolor = tested on: Tenacibaculum discolor
Protocol: as §1, §2, §4

Vibrio alginolyticus [12] = tested on: Vibrio alginolyticus; remark: listed apart in the source
Protocol: as §1, §2, §4

[13] = tested on: Escherichia coli (ATCC 25922); remark: listed apart in the source
Protocol: as §1, §2, §4

Shewanella sp. [14] = tested on: Shewanella sp.; remark: listed apart in the source
Protocol: as §1, §2, §4

[15] = no acetic acid (peptide diluted 1:10 in MHB), MHB 0‰, 25 °C, MIC after 48 h, ca. 5 × 10^5 CFU mL^-1, duplicate
[16] = with acetic acid (0.01% acetic acid w/v, 0.2% BSA diluent), MHB 0‰, 25 °C, MIC after 48 h, ca. 5 × 10^5 CFU mL^-1, duplicate
[17] = MHB 0‰, acetic acid only for peptides requiring it, 25 °C, MIC after 48 h, ca. 5 × 10^5 CFU mL^-1, duplicate
[18] = MHB with artificial sea salts 25‰, acetic acid only for peptides requiring it, 25 °C, MIC after 48 h, ca. 5 × 10^5 CFU mL^-1, duplicate

## RRQWRGWVRIWL-NH2 [Peptide 3005]
Vibrio scophthalmi [1]; 48 h
  MIC V. scophthalmi, Acetic: 1.02 µg/mL
  MIC V. scophthalmi, No acetic: 0.25 µg/mL
Vibrio harveyi [2]; 48 h
  MIC V. harveyi, Acetic: 4.06 µg/mL
  MIC V. harveyi, No acetic: 1.02 µg/mL
[3]; ATCC 35084, 48 h
  MIC V. harveyi ATCC 35084, Acetic: 16.25 µg/mL
  MIC V. harveyi ATCC 35084, No acetic: 16.25 µg/mL
Vibrio rotiferianus [4]; 48 h
  MIC V. rotiferianus, Acetic: 4.06 µg/mL
  MIC V. rotiferianus, No acetic: 1.02 µg/mL
Vibrio alginolyticus [5]; 48 h
  MIC V. alginolyticus, Acetic: 4.06 µg/mL
  MIC V. alginolyticus, No acetic: 16.25 µg/mL
[6]; ATCC 25922, 48 h
  MIC E. coli ATCC 25922, Acetic: > 65 µg/mL
  MIC E. coli ATCC 25922, No acetic: > 65 µg/mL
Shewanella sp. [7]; 48 h
  MIC Shewanella sp., Acetic: 4.06 µg/mL
  MIC Shewanella sp., No acetic: 8.13 µg/mL
Vibrio scophthalmi [8]; 48 h
  MIC V. scophthalmi, salinity 0‰: 0.13 µg/mL
  MIC V. scophthalmi, salinity 25‰: 65 µg/mL
Vibrio harveyi [9]; 48 h
  MIC V. harveyi, salinity 0‰: 4.06 µg/mL
  MIC V. harveyi, salinity 25‰: > 65 µg/mL
Pseudoalteromonas sp.; 48 h
  MIC Pseudoalteromonas sp., salinity 25‰: > 65 µg/mL
[10]; ATCC 35084, 48 h
  MIC V. harveyi ATCC 35084, salinity 0‰: 4.06 µg/mL
  MIC V. harveyi ATCC 35084, salinity 25‰: > 65 µg/mL
Vibrio rotiferianus [11]; 48 h
  MIC V. rotiferianus, salinity 0‰: 1.02 µg/mL
  MIC V. rotiferianus, salinity 25‰: > 65 µg/mL
Tenacibaculum discolor; 48 h
  MIC T. discolor, salinity 25‰: > 65 µg/mL
Vibrio alginolyticus [12]; 48 h
  MIC V. alginolyticus, salinity 0‰: 2.03 µg/mL
  MIC V. alginolyticus, salinity 25‰: > 65 µg/mL
[13]; ATCC 25922, 48 h
  MIC E. coli ATCC 25922, salinity 0‰: 4.06 µg/mL
  MIC E. coli ATCC 25922, salinity 25‰: > 65 µg/mL
Shewanella sp. [14]; 48 h
  MIC Shewanella sp., salinity 0‰: 8.13 µg/mL
  MIC Shewanella sp., salinity 25‰: 65 µg/mL

## VLQIKKVLRLLL-NH2 [Peptide 3011]
Vibrio scophthalmi [1]; [15]
  MIC V. scophthalmi, No acetic: 2.03 µg/mL
Vibrio scophthalmi [1]; [16]
  MIC V. scophthalmi, Acetic: 4.06 µg/mL
Vibrio harveyi [2]; [15]
  MIC V. harveyi, No acetic: 32.5 µg/mL
Vibrio harveyi [2]; [16]
  MIC V. harveyi, Acetic: 16.25 µg/mL
[3]; [15]
  MIC V. harveyi ATCC 35084, No acetic: 8.13 µg/mL
[3]; [16]
  MIC V. harveyi ATCC 35084, Acetic: 16.25 µg/mL
Vibrio rotiferianus [4]; [15]
  MIC V. rotiferianus, No acetic: 4.06 µg/mL
Vibrio rotiferianus [4]; [16]
  MIC V. rotiferianus, Acetic: 4.06 µg/mL
Vibrio alginolyticus [5]; [15]
  MIC V. alginolyticus, No acetic: 4.06 µg/mL
Vibrio alginolyticus [5]; [16]
  MIC V. alginolyticus, Acetic: 4.06 µg/mL
[6]; [15]
  MIC E. coli ATCC 25922, No acetic: 8.13 µg/mL
[6]; [16]
  MIC E. coli ATCC 25922, Acetic: 16.25 µg/mL
Shewanella sp. [7]; [15]
  MIC Shewanella sp., No acetic: 16.25 µg/mL
Shewanella sp. [7]; [16]
  MIC Shewanella sp., Acetic: 16.25 µg/mL
Vibrio scophthalmi [8]; [17]
  MIC V. scophthalmi, salinity 0‰: 1.02 µg/mL
Vibrio scophthalmi [8]; [18]
  MIC V. scophthalmi, salinity 25‰: > 65 µg/mL
Vibrio harveyi [9]; [17]
  MIC V. harveyi, salinity 0‰: 8.13 µg/mL
Vibrio harveyi [9]; [18]
  MIC V. harveyi, salinity 25‰: > 65 µg/mL
Pseudoalteromonas sp.; MHB with artificial sea salts 25‰, 25 °C, MIC after 48 h, ca. 5 × 10^5 CFU mL^-1, duplicate
  MIC Pseudoalteromonas sp., salinity 25‰: > 65 µg/mL
[10]; [17]
  MIC V. harveyi ATCC 35084, salinity 0‰: 8.13 µg/mL
[10]; [18]
  MIC V. harveyi ATCC 35084, salinity 25‰: > 65 µg/mL
Vibrio rotiferianus [11]; [17]
  MIC V. rotiferianus, salinity 0‰: 4.06 µg/mL
Vibrio rotiferianus [11]; [18]
  MIC V. rotiferianus, salinity 25‰: > 65 µg/mL
Tenacibaculum discolor; MHB (25‰) diluted 1 part MHB and 7 parts artificial seawater (25‰), 25 °C, MIC after 48 h, ca. 5 × 10^5 CFU mL^-1, duplicate
  MIC T. discolor, salinity 25‰: > 65 µg/mL
Vibrio alginolyticus [12]; [17]
  MIC V. alginolyticus, salinity 0‰: 4.06 µg/mL
Vibrio alginolyticus [12]; [18]
  MIC V. alginolyticus, salinity 25‰: > 65 µg/mL
[13]; [17]
  MIC E. coli ATCC 25922, salinity 0‰: 16.25 µg/mL
[13]; [18]
  MIC E. coli ATCC 25922, salinity 25‰: > 65 µg/mL
Shewanella sp. [14]; [17]
  MIC Shewanella sp., salinity 0‰: 8.13 µg/mL
Shewanella sp. [14]; [18]
  MIC Shewanella sp., salinity 25‰: > 65 µg/mL
